# Values of other authors as cited in PMC4267740, “Unprecedented Therapeutic Potential with a Combination of A2A/NR2B Receptor Antagonists as Observed in the 6-OHDA Lesioned Rat Model of Parkinson's Disease” (PLoS ONE, 2014).
# What was measured:
# [1] = system: haloperidol-induced catalepsy; conditions: threshold dose of Theophylline; cited from earlier work
# [2] = system: L-Dopa-induced dyskinesia; parameters: method as in PMID 18759356; conditions: randomized double-blind placebo-controlled clinical trial; cited from earlier work
# [3] = system: rats with a unilateral lesion of the medial forebrain bundle; conditions: cited from earlier work
# [4] = system: Reserpine-induced akinesia; parameters: method as in PMID 9918703; conditions: cited from earlier work
# [5] = system: PD patients; conditions: single clinical study; cited from earlier work
# [6] = system: unilaterally 6-OHDA-lesioned rats; parameters: method as in PMID 15081591; conditions: rotometer; cited from earlier work
smiles,measurement,setting,value
C/C(=C\C(N)C(=O)O)CP(=O)(O)O (stereo not shown) [CGP37849],Effect of co-administration with Theophylline on haloperidol-induced catalepsy,[1],potentiate the effects of a threshold dose of Theophylline
"C[C@@H]([C@@H](O)c1ccc(O)cc1)N1CCC(O)(c2ccccc2)CC1 [CP-101,606]",Efficacy in counteracting L-Dopa-induced dyskinesia,[2],demonstrated efficacy
O=C(O)C1CN(CCCP(=O)(O)O)CCN1 (stereo not shown) [CPP],Effect on stepping deficit,[3],ameliorate the stepping deficit
CC(C(O)c1ccc(O)cc1)N1CCC(Cc2ccccc2)CC1 (stereo not shown) [Ifenprodil],Effect on Reserpine-induced akinesia,[4],counteract Reserpine-induced akinesia at the highest dose tested
Cc1ccc(COC(=O)N2CC[C@H](CNc3ncccn3)[C@H](F)C2)cc1 [MK-0657],Result of clinical study as monotherapy,[5],negative results
CC(C(O)c1ccc(O)cc1)N1CCC(Cc2ccccc2)CC1 (stereo not shown) [Ro 25–6981],Induction of contralateral rotations as monotherapy,[6],inducing contralateral rotations
C[C@]12N[C@H](Cc3ccccc31)c1ccccc12 [dizocilpine],Effect of co-administration with Theophylline on haloperidol-induced catalepsy,[1],potentiate the effects of a threshold dose of Theophylline
